{"source": "paper PMC10620772", "about": "“Design, synthesis, and biological evaluation of new pyrimidine-5-carbonitrile derivatives as novel anti-cancer, dual EGFR^WT/COX-2 inhibitors with docking studies” (RSC Advances, 2023)", "experiment_in_all_cases": "NCI60 antitumor screening", "assay_type_in_all_cases": "cell-based, human", "key": {"IGROV1": {"system": "IGROV1"}, "OVCAR-5": {"system": "OVCAR-5"}, "NCI-H322M": {"system": "NCI-H322M"}, "MCF7": {"system": "MCF7"}, "NCI-H460": {"system": "NCI-H460"}, "MDA-MB-468": {"system": "MDA-MB-468"}, "HCT-15": {"system": "HCT-15"}, "UO-31": {"system": "UO-31"}, "SF-268": {"system": "SF-268"}, "U251": {"system": "U251"}, "HOP-62": {"system": "HOP-62"}, "SK-MEL-5": {"system": "SK-MEL-5"}, "786–0": {"system": "786–0"}, "OVCAR-8": {"system": "OVCAR-8"}, "CAKI-1": {"system": "CAKI-1"}, "SW-620": {"system": "SW-620"}, "NCI-H226": {"system": "NCI-H226"}, "A549/ATCC": {"system": "A549/ATCC"}, "TK-10": {"system": "TK-10"}, "[1]": {"settings": "Homo sapiens, NCI-H322M, five-dose"}, "[2]": {"settings": "Homo sapiens, MDA-MB-468, five-dose"}}, "data": [{"smiles": "N#Cc1c(-c2ccc(F)cc2)nc(SCc2ccc(F)cc2)nc1N1CCNCC1", "note": "[4f, 2-((4-Fluorobenzyl)thio)-4-(4-fluorophenyl)-6-(piperazin-1-yl) pyrimidine-5-carbonitrile]", "values": [{"measurement": "inhibition at 10 µM", "setting": "IGROV1; Homo sapiens, IGROV-1, 10 μM single dose, IGROV1 (ovarian cancer), read-out: growth inhibition percent (GI%)", "value": "> 100", "unit": "%"}, {"measurement": "GI50", "setting": "IGROV1; Homo sapiens, IGROV-1, five-dose", "value": 15.6, "unit": "µM"}, {"measurement": "CC50", "setting": "IGROV1; Homo sapiens, IGROV-1, five-dose, read-out: LC50 (the source's name)", "value": 56.8, "unit": "µM"}, {"measurement": "TGI", "setting": "IGROV1; five-dose", "value": 29.80, "unit": "µM"}, {"measurement": "GI%", "setting": "OVCAR-5; 10 μM one-dose", "value": 99.16, "unit": "%"}, {"measurement": "GI50", "setting": "OVCAR-5; Homo sapiens, OVCAR-5, five-dose", "value": 14.5, "unit": "µM"}, {"measurement": "CC50", "setting": "OVCAR-5; Homo sapiens, OVCAR-5, five-dose, read-out: LC50 (the source's name)", "value": 53.9, "unit": "µM"}, {"measurement": "inhibition at 10 µM", "setting": "OVCAR-5; Homo sapiens, 10 μM single dose, OVCAR-5 (ovarian cancer), read-out: growth inhibition percent (GI%)", "value": 99.2, "unit": "%"}, {"measurement": "TGI", "setting": "OVCAR-5; five-dose", "value": 28.00, "unit": "µM"}, {"measurement": "GI50", "setting": "NCI-H322M; [1]", "value": 14, "unit": "µM"}, {"measurement": "LC50 (50% lethal concentration)", "setting": "NCI-H322M; [1]", "value": 52.8, "unit": "µM"}, {"measurement": "inhibition at 10 µM", "setting": "NCI-H322M; Homo sapiens, 10 μM single dose, NCI-H322M (non-small cell lung cancer), read-out: growth inhibition percent (GI%)", "value": 64, "unit": "%"}, {"measurement": "TGI", "setting": "NCI-H322M; five-dose", "value": 27.20, "unit": "µM"}, {"measurement": "GI50", "setting": "MCF7; Homo sapiens, MCF7, five-dose", "value": 6.43, "unit": "µM"}, {"measurement": "CC50", "setting": "MCF7; Homo sapiens, MCF7, five-dose, read-out: LC50 (the source's name)", "value": 50.1, "unit": "µM"}, {"measurement": "inhibition at 10 µM", "setting": "MCF7; Homo sapiens, 10 μM single dose, MCF7 (breast cancer), read-out: growth inhibition percent (GI%)", "value": "> 100", "unit": "%"}, {"measurement": "TGI", "setting": "MCF7; five-dose", "value": 20.20, "unit": "µM"}, {"measurement": "GI50", "setting": "NCI-H460; Homo sapiens, NCI-H460, five-dose", "value": 14.3, "unit": "µM"}, {"measurement": "CC50", "setting": "NCI-H460; Homo sapiens, NCI-H460, five-dose, read-out: LC50 (the source's name)", "value": 60.4, "unit": "µM"}, {"measurement": "inhibition at 10 µM", "setting": "NCI-H460; Homo sapiens, 10 μM single dose, NCI-H460 (non-small cell lung cancer), read-out: growth inhibition percent (GI%)", "value": "> 100", "unit": "%"}, {"measurement": "TGI", "setting": "NCI-H460; five-dose", "value": 29.40, "unit": "µM"}, {"measurement": "GI50", "setting": "MDA-MB-468; [2]", "value": 12.4, "unit": "µM"}, {"measurement": "LC50", "setting": "MDA-MB-468; [2]", "value": 55.3, "unit": "µM"}, {"measurement": "inhibition at 10 µM", "setting": "MDA-MB-468; Homo sapiens, 10 μM single dose, MDA-MB-468 (breast cancer), read-out: growth inhibition percent (GI%)", "value": "> 100", "unit": "%"}, {"measurement": "TGI", "setting": "MDA-MB-468; five-dose", "value": 26.20, "unit": "µM"}, {"measurement": "GI50", "setting": "HCT-15; Homo sapiens, HCT-15, five-dose", "value": 11.7, "unit": "µM"}, {"measurement": "CC50", "setting": "HCT-15; Homo sapiens, HCT-15, five-dose, read-out: LC50 (the source's name)", "value": 51.8, "unit": "µM"}, {"measurement": "inhibition at 10 µM", "setting": "HCT-15; Homo sapiens, 10 μM single dose, HCT-15 (colon cancer), read-out: growth inhibition percent (GI%)", "value": "> 100", "unit": "%"}, {"measurement": "TGI", "setting": "HCT-15; five-dose", "value": 24.60, "unit": "µM"}, {"measurement": "GI%", "setting": "UO-31; 10 μM one-dose", "value": 91.74, "unit": "%"}, {"measurement": "inhibition at 10 µM", "setting": "UO-31; Homo sapiens, 10 μM single dose, UO-31 (renal cancer), read-out: growth inhibition percent (GI%)", "value": 91.7, "unit": "%"}, {"measurement": "GI50", "setting": "SF-268; Homo sapiens, SF-268, five-dose", "value": 14.1, "unit": "µM"}, {"measurement": "CC50", "setting": "SF-268; Homo sapiens, SF-268, five-dose, read-out: LC50 (the source's name)", "value": 67.5, "unit": "µM"}, {"measurement": "inhibition at 10 µM", "setting": "SF-268; Homo sapiens, 10 μM single dose, SF-268 (CNS cancer), read-out: growth inhibition percent (GI%)", "value": 58.5, "unit": "%"}, {"measurement": "TGI", "setting": "SF-268; five-dose", "value": 30.90, "unit": "µM"}, {"measurement": "inhibition at 10 µM", "setting": "U251; Homo sapiens, U-251, 10 μM single dose, U251 (CNS cancer), read-out: growth inhibition percent (GI%)", "value": "> 100", "unit": "%"}, {"measurement": "GI50", "setting": "U251; Homo sapiens, U-251, five-dose", "value": 10.3, "unit": "µM"}, {"measurement": "CC50", "setting": "U251; Homo sapiens, U-251, five-dose, read-out: LC50 (the source's name)", "value": 59.1, "unit": "µM"}, {"measurement": "TGI", "setting": "U251; five-dose", "value": 24.70, "unit": "µM"}, {"measurement": "GI50", "setting": "HOP-62; Homo sapiens, HOP-62, five-dose", "value": 17, "unit": "µM"}, {"measurement": "CC50", "setting": "HOP-62; Homo sapiens, HOP-62, five-dose, read-out: LC50 (the source's name)", "value": 65.8, "unit": "µM"}, {"measurement": "inhibition at 10 µM", "setting": "HOP-62; Homo sapiens, 10 μM single dose, HOP-62 (non-small cell lung cancer), read-out: growth inhibition percent (GI%)", "value": "> 100", "unit": "%"}, {"measurement": "TGI", "setting": "HOP-62; five-dose", "value": 33.40, "unit": "µM"}, {"measurement": "GI50", "setting": "SK-MEL-5; Homo sapiens, SK-MEL-5, five-dose", "value": 16.8, "unit": "µM"}, {"measurement": "CC50", "setting": "SK-MEL-5; Homo sapiens, SK-MEL-5, five-dose, read-out: LC50 (the source's name)", "value": 55.4, "unit": "µM"}, {"measurement": "inhibition at 10 µM", "setting": "SK-MEL-5; Homo sapiens, 10 μM single dose, SK-MEL-5 (melanoma), read-out: growth inhibition percent (GI%)", "value": "> 100", "unit": "%"}, {"measurement": "TGI", "setting": "SK-MEL-5; five-dose", "value": 30.50, "unit": "µM"}, {"measurement": "GI50", "setting": "786–0; Homo sapiens, 786-0, five-dose", "value": 13.8, "unit": "µM"}, {"measurement": "LC50 (concentration killing 50% of tumour cells)", "setting": "786–0; Homo sapiens, 786-0, five-dose", "value": 62.6, "unit": "µM"}, {"measurement": "inhibition at 10 µM", "setting": "786–0; Homo sapiens, 10 μM single dose, 786–0 (renal cancer), read-out: growth inhibition percent (GI%)", "value": "> 100", "unit": "%"}, {"measurement": "TGI", "setting": "786–0; five-dose", "value": 29.30, "unit": "µM"}, {"measurement": "GI50", "setting": "OVCAR-8; Homo sapiens, OVCAR-8, five-dose", "value": 13.2, "unit": "µM"}, {"measurement": "CC50", "setting": "OVCAR-8; Homo sapiens, OVCAR-8, five-dose, read-out: LC50 (the source's name)", "value": 70.6, "unit": "µM"}, {"measurement": "inhibition at 10 µM", "setting": "OVCAR-8; Homo sapiens, 10 μM single dose, OVCAR-8 (ovarian cancer), read-out: growth inhibition percent (GI%)", "value": "> 100", "unit": "%"}, {"measurement": "TGI", "setting": "OVCAR-8; five-dose", "value": 30.50, "unit": "µM"}, {"measurement": "GI50", "setting": "CAKI-1; Homo sapiens, CAKI-1, five-dose", "value": 15.3, "unit": "µM"}, {"measurement": "CC50", "setting": "CAKI-1; Homo sapiens, CAKI-1, five-dose, read-out: LC50 (the source's name)", "value": 54.6, "unit": "µM"}, {"measurement": "inhibition at 10 µM", "setting": "CAKI-1; Homo sapiens, 10 μM single dose, CAKI-1 (renal cancer), read-out: growth inhibition percent (GI%)", "value": "> 100", "unit": "%"}, {"measurement": "TGI", "setting": "CAKI-1; five-dose", "value": 29.00, "unit": "µM"}, {"measurement": "GI50", "setting": "SW-620; Homo sapiens, SW-620, five-dose", "value": 5.97, "unit": "µM"}, {"measurement": "CC50", "setting": "SW-620; Homo sapiens, SW-620, five-dose, read-out: LC50 (the source's name)", "value": 48.7, "unit": "µM"}, {"measurement": "inhibition at 10 µM", "setting": "SW-620; Homo sapiens, 10 μM single dose, SW-620 (colon cancer), read-out: growth inhibition percent (GI%)", "value": "> 100", "unit": "%"}, {"measurement": "TGI", "setting": "SW-620; five-dose", "value": 19.30, "unit": "µM"}, {"measurement": "GI50", "setting": "NCI-H226; Homo sapiens, NCI-H226, five-dose", "value": 15.9, "unit": "µM"}, {"measurement": "CC50", "setting": "NCI-H226; Homo sapiens, NCI-H226, five-dose, read-out: LC50 (the source's name)", "value": 80.3, "unit": "µM"}, {"measurement": "inhibition at 10 µM", "setting": "NCI-H226; Homo sapiens, 10 μM single dose, NCI-H226 (non-small cell lung cancer), read-out: growth inhibition percent (GI%)", "value": 23.1, "unit": "%"}, {"measurement": "TGI", "setting": "NCI-H226; five-dose", "value": 35.70, "unit": "µM"}, {"measurement": "GI50", "setting": "A549/ATCC; Homo sapiens, A549, five-dose", "value": 11.5, "unit": "µM"}, {"measurement": "LC50 (concentration killing 50% of cells)", "setting": "A549/ATCC; Homo sapiens, A549, five-dose", "value": 54.2, "unit": "µM"}, {"measurement": "inhibition at 10 µM", "setting": "A549/ATCC; Homo sapiens, 10 μM single dose, A549/ATCC (non-small cell lung cancer), read-out: growth inhibition percent (GI%)", "value": "> 100", "unit": "%"}, {"measurement": "TGI", "setting": "A549/ATCC; five-dose", "value": 25.00, "unit": "µM"}, {"measurement": "GI50", "setting": "TK-10; Homo sapiens, TK-10, five-dose", "value": 15, "unit": "µM"}, {"measurement": "LC50", "setting": "TK-10; Homo sapiens, TK-10, five-dose", "value": 58.8, "unit": "µM"}, {"measurement": "inhibition at 10 µM", "setting": "TK-10; Homo sapiens, 10 μM single dose, TK-10 (renal cancer), read-out: growth inhibition percent (GI%)", "value": "> 100", "unit": "%"}, {"measurement": "TGI", "setting": "TK-10; five-dose", "value": 29.70, "unit": "µM"}]}]}
